Data set [1] relates to cIAP2−/− and control mice. To be noted: LPS 0 μg/kg, D-galactosamine 0.6 g/kg i.p. The text has this:
In addition, we exposed cIAP2^−/− mice to a second mode of LPS-induced toxicity, where treatment with D-galactosamine (DGLBN) sensitized mice to endotoxic shock.

The test system of another data set is spleen derived T cells. The experiment in a line: Dexamethasone-induced death of T cells pre-incubated with IL-7. Type of data set: cell-based, mouse. The conditions noted are these: dexamethasone 100 nM. As to the method:
Peritoneal-derived macrophages from cIAP2^−/− (lower panels) and cIAP2^+/+ mice (upper panels) were either pre-treated with LPS for 4 h or not pre-treated prior to exposure to α-Fas antibody and then TUNEL stained to assess cell viability (A). Percentages of viable cells (n=5, average of triplicate wells per mouse, P values were <0.01) are shown within each TUNEL stained panel along with the standard deviation. cIAP2^−/−-derived (open shapes) and cIAP2^+/+-derived (solid shapes) T cells were pre-incubated with a range of IL-7 concentrations and then exposed to dexamethasone and T cell survival was monitored over a 12 h period (B) (n=3, average of triplicate wells per mouse, results are mean±s.d., P values at the 12 h point were <0.05). Peritoneal-derived cell numbers are shown for macrophages of cIAP2^−/− mice and littermate control cIAP2^+/+ mice injected i.p. with LPS(C). […]
Confluent primary cultures of peritoneal-derived macrophages were either pre-treated with LPS (10 μg/ml, 4 h) or not pre-treated prior to exposure to α-Fas antibody (20 μg/ml, clone Jo2) and then TUNEL stained (Roche) to assess cell viability. Primary cultures of spleen derived T cells were pre-incubated with a range of IL-7 concentrations (0, 5, and 10 ng/ml) and then exposed to dexamethasone (100 nM) and T cell survival was monitored over a 12 h period.

Where two headings read alike, the source gives them in different places.

Regarding `N[C@H]1C(O)O[C@H](CO)[C@H](O)[C@@H]1O` (stereo partly drawn) [D-galactosamine], the Survival in data set [1] (cIAP2+/+ mice) and in data set [1] (cIAP2−/− mice) was 6/6 throughout.

B1: IL-7: cIAP2-inducing agent that imparts T cells with increased apoptotic resistance (protein, UniProt P13232 26-177, looked up)
Interleukin-7: DCDIEGKDGKQYESVLMVSIDQLLDSMKEIGSNCLNNEFNFFKRHICDANKEGMFLFRAARKLRQFLKMNSTGDFDLHLLKVSEGTTILLNCTGQVKGRKPAALGEAQPTKSLEENKSLKEQKKLNDLCFLKRLLQEIKTCWNKILMGTKEH
As for B1, the “Resistance to apoptosis with or without IL-7 pretreatment” value with spleen derived T cells (cIAP2−/− T cells) is given as “displayed no difference in the resistance to apoptosis”. The “Resistance against dexamethasone-induced death after IL-7 pre-exposure” value in the data set on spleen derived T cells (wild-type T cells, IL-7 5 or 10 ng/ml) was “showed a dose dependent resistance against dexamethasone-induced death”.

These data come from patent US20060123501A1, “Method for treating inflammatory disorders” (priority 2004, published 2006).
